Data on twelve compounds can be found in patent publication US6136992A, “2-alkoxy estradiols and derivatives thereof” (The United States of America as represented by the …, priority 1998, dated 2000).

pIC50: −log10 of the molar value. Where a name gives a salt, the structure may show the parent alone. Read-outs that look alike come from different tables or passages of the source.

Broadly, the pIC50 is the IC50 on a negative log10 scale, so that one unit is a factor of ten. For orientation: GI50 means the concentration that inhibits growth by half.

In series [1] the test system is tubulin. Briefly: Inhibition of tubulin polymerization (turbidimetry at 350 nm). The class given is biochemical, bovine. As to conditions: for pIC50: 26° C., 20 min, read-out: Inhibn of Tubulin Polymn IC50. The procedure: Four instruments were used, and two control reaction mixtures were present in each experiment. […] IC50 values were determined graphically. […]
Inhibition of tubulin polymerization was investigated using electrophoretically homogeneous tubulin from bovine brain.

In series [2] the target is T1, estrogen receptor (Rattus norvegicus, UniProt P06211).
T1 construct: from tissue; host or cells: rat uterine cytosol
T1 sequence (P06211 1-600): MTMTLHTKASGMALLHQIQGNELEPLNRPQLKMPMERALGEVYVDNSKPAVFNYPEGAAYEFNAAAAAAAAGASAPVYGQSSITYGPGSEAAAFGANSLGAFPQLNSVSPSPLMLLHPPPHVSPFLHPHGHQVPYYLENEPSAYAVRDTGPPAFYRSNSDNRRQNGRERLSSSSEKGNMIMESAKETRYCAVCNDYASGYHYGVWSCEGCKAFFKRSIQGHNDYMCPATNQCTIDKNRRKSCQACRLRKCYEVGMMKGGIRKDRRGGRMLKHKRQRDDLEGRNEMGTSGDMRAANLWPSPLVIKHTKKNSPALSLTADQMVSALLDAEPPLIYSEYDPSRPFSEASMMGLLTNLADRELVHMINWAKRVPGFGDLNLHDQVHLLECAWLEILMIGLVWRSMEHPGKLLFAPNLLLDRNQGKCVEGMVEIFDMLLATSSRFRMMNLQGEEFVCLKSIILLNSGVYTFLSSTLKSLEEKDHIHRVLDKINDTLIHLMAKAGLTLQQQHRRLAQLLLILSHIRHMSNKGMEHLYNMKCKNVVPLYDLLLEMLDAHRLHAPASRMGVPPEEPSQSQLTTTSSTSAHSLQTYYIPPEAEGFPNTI
Nature of the series: Estrogen binding affinity assay (comparative radiometric binding, rat uterine cytosol). As to conditions: for RBA (relative binding affinity): 0° C., estradiol = 100. The procedure: The assay of (11), (12) and (16) were conducted at 0° C. for 20 hours, while those for (1) and (2) were performed at 0° C. for 18 hours.

Series [3] has as its system solid tumors. Conditions: cited from earlier work.
Series [4] relates to HOP-62 non-small-cell lung cancer cells. Nature of the series: NCI in vitro anticancer screen, HOP-62 non-small-cell lung cancer. The class given is cell-based. As to conditions: Homo sapiens, HOP-62, read-out: cytotoxicity GI50, Lung HOP-62. An excerpt: (§1) The effects of the analogs on cancer cell growth was investigated in the National Cancer Institute (NCI) Developmental Therapeutics Program's in vitro panel of approximately 55 cell lines (Grever et al., Seminars in Oncology 19:622 (1992), Alley et al., Cancer Research 48:589 (1988) and Montes et al., J. National Cancer Institute 83:757 (1991)). Representative results are listed in Table 1 for HOP-62 non-small-cell lung cancer cells, HCT-116 colon cancer cells, SF-539 central nervous system (CNS) cancer cells, UACC-62 melanoma cells, OVCAR ovarian cancer cells, SN12-C renal cancer cells, DU-145 prostate cancer cells, and MDA-MB-435 breast cancer cells.
(§2) ^a The cytotoxicity GI50 values are the concentrations

For series [5], the system named is HCT-116 colon cancer cells. Nature of the series: NCI in vitro anticancer screen, HCT-116 colon cancer. Conditions: Homo sapiens, HCT-116, read-out: cytotoxicity GI50, Colon HCT-116. It is filed as cell-based.
From the text: as §1, §2

Series [6] relates to UACC-62 melanoma cells. Briefly: NCI in vitro anticancer screen, UACC-62 melanoma. The class given is cell-based. Conditions: Homo sapiens, UACC-62, read-out: cytotoxicity GI50, Melanoma UACC-62.
From the text: as §1, §2

The test system of series [7] is OVCAR ovarian cancer cells. Nature of the series: NCI in vitro anticancer screen, OVCAR ovarian cancer. The class given is cell-based. Conditions: Homo sapiens, read-out: cytotoxicity GI50, Ovarian OVCAR.
From the text: as §1, §2

Series [8] has as its system SN12-C renal cancer cells. Briefly: NCI in vitro anticancer screen, SN12-C renal cancer. The class given is cell-based. As to conditions: Homo sapiens, SN12C, read-out: cytotoxicity GI50, Renal SN12-C.
From the text: as §1, §2

The test system of series [9] is DU-145 prostate cancer cells. Briefly: NCI in vitro anticancer screen, DU-145 prostate cancer. It is filed as cell-based. As to conditions: Homo sapiens, DU-145, read-out: cytotoxicity GI50, Prostate DU-145.
From the text: as §1, §2

For series [10], the system named is MDA-MB-435 breast cancer cells. Briefly: NCI in vitro anticancer screen, MDA-MB-435 breast cancer. The class given is cell-based. Conditions: Homo sapiens, MDA-MB-435, read-out: cytotoxicity GI50, Breast MDA-MB-435. The text has this:
The effects of the analogs on cancer cell growth was investigated in the National Cancer Institute (NCI) Developmental Therapeutics Program's in vitro panel of approximately 55 cell lines (Grever et al., Seminars in Oncology 19:622 (1992), Alley et al., Cancer Research 48:589 (1988) and Montes et al., J. National Cancer Institute 83:757 (1991)).

In series [11] the test system is all human cancer cell lines (approximately 55). Nature of the series: NCI in vitro anticancer screen, all cell lines. It is filed as cell-based.
From the text: as §1
^b Mean graph midpoint for all human cancer cell lines (approximately

The test system of series [12] is SF-539 central nervous system (CNS) cancer cells. Briefly: NCI in vitro anticancer screen, SF-539 CNS cancer. It is filed as cell-based. As to conditions: Homo sapiens, read-out: cytotoxicity GI50, CNS SF-539.
From the text: as §1, §2

Setting [13] is: read-out: MGM (mean graph midpoint for all human cancer cell lines), GI50.
The mark [14] stands for this setting: approximately 55 cell lines, read-out: MGM (mean graph midpoint for all human cancer cell lines), GI50.

With `COc1cc2c(cc1O)CC[C@@H]1[C@@H]2CC[C@]2(C)[C@@H](O)CC[C@@H]12` [Compound 1, 2-methoxy estradiol, reference compound], the pIC50 in series [1] is 5.54. Further, in series [2] (18 hours), the “RBA (relative binding affinity)” value is given as 0.245. For the same compound, the “inhibition of neovascularization and growth of solid tumors in mice” value in series [3] is “potent inhibitor of neovascularization of solid tumors and inhibits their growth”. Further, the “signs of toxicity at tumor-inhibiting doses” value in series [3] (mice) is reported as “no apparent signs of toxicity”.
For the compound `CCOc1cc2c(cc1O)C(=NO)C[C@@H]1[C@@H]2CC[C@]2(C)[C@@H](O)CC[C@@H]12` [Compound 11, 2-Ethoxy-6-Hydroximinoestra-1,3,5(10)-Triene-3,17β-Diol], the pIC50 in [1] was 6.21. Moreover, the GI50 in [4], in series [5], in series [6], in [7], in series [8] and in series [9] was less than 0.01 µM in each case. Besides, the GI50 in [10] was less than 0.01 µM; in series [11] (read-out: GI50), less than 0.01 µM; in [11] (setting [13]), 0.04 µM. Further, in series [2], the “affinity for the estrogen receptor, in words” value was “no affinity for the estrogen receptor”. Besides, the “RBA (relative binding affinity)” value in series [2] (20 hours) is recorded as less than 0.001.
As for `CCOc1cc2c(cc1OC(C)=O)C(=O)C[C@@H]1[C@@H]2CC[C@]2(C)[C@@H](OC(C)=O)CC[C@@H]12` [Compound 7, 2-Ethoxy-3,17β-Diacetoxy-6-Oxoestra-1,3,5(10)-triene], the pIC50 in series [1] was less than 4.40. Moreover, the GI50 in [4] is 20 µM; in [5], 21.1 µM; in [12], 22.6 µM; in series [6], 17.7 µM; in [7], 23.7 µM; in series [8] it was 19.8 µM. Moreover, the values for the 50% growth inhibitory concentration (GI50) in series [9], in [10] and in [11] (setting [14]) were 19.8 µM, 18.4 µM and 19.5 µM, respectively.
`CC(=O)Oc1cc2c(cc1OCC(F)(F)F)[C@H]1CC[C@]3(C)[C@@H](OC(C)=O)CC[C@H]3[C@@H]1CC2=O` [Compound 6, 2-(2',2',2'-Trifluoroethoxy)-3,17β-Diacetyloxy-Estra-6-Oxo-1,3,5(10)-Triene]: in [1], the pIC50 is 5.22. Also, the GI50 in series [4] turned out to be 8.7 µM; in series [5], 3.71 µM; in series [12], 5.11 µM; in series [6], 3.33 µM; in series [7], 3.52 µM; in [8], 23.5 µM. Also, the GI50 in series [9] stood at 15 µM; in series [10], 26.5 µM; in series [11] (setting [14]) it was 9.77 µM.
On to `CCOc1cc2c(cc1O)[C@@H](O)C[C@@H]1[C@@H]2CC[C@]2(C)[C@@H](O)CC[C@@H]12` [Compound 14, 2-Ethoxyestra-1,3,5(10)-Triene-3,6α,17β-Triol], for which the pIC50 in series [1] is 5.60. The GI50 in series [5] was 0.35 µM; in series [6] it was 0.28 µM; in [7], 0.35 µM; in series [8], 0.66 µM; in series [9] it was 0.71 µM; in series [10], 5.39 µM. Besides, the 50% growth inhibitory concentration (GI50) in series [11] (setting [14]) turned out to be 0.83 µM.
Turning to `CCOc1cc2c(cc1O)C(=NNS(=O)(=O)c1ccc(C)cc1)C[C@@H]1[C@@H]2CC[C@]2(C)[C@@H](O)CC[C@@H]12` [Compound 15, 2-Ethoxy-6-Tosylhydrazone-Estra-1,3,5(10)-Triene-3,17β-Diol], the pIC50 in series [1] was less than 4.40. Also, the GI50 stood at 5.14 µM in series [4]; 6.67 µM in series [5]; 3.45 µM in series [12]; 3.18 µM in series [7]; 12.1 µM in series [8]; 14.9 µM in series [9]. The GI50 in series [11] (setting [14]) came to 6.16 µM.
For the compound `CCOc1cc2c(cc1O)CC[C@@H]1[C@@H]2CC[C@]2(C)C(N)CC[C@@H]12` (stereo partly drawn) [Compound 20, 2-Ethoxy-3-Hydroxy-17-α/β-Aminoestra-1,3,5(10)-Triene Hydrochloride], the pIC50 in series [1] is less than 4.40. In addition, the GI50 was 10.9 µM in [4]; 3.15 µM in series [5]; 3.99 µM in series [12]; 3.61 µM in [6]; 1.25 µM in series [7]; 5.24 µM in series [8]. For the same compound, the results for the GI50 in [9], in [10] and in [11] (setting [14]) were 1.93 µM, 1.74 µM and 3.31 µM, respectively.
Take `CCOc1cc2c(cc1O)CC[C@@H]1[C@@H]2CC[C@]2(C)[C@@H](O)CC[C@@H]12` [Compound 2, 2-ethoxy estra-1,3,5(10)-trien-3,17β-diol]: in series [1], the pIC50 was 6.04. In series [1] (comparison with 2-methoxy estradiol (1) or 2-ethoxy estradiol (2)), the “inhibition of tubulin polymerization, relative activity in words” value was “over three times more active than 2-methoxy estradiol (1)”.
In the case of `C[C@]12CC[C@@H]3c4cc(OCC(F)(F)F)c(O)cc4CC[C@H]3[C@@H]1CC[C@@H]2O` [Compound 3, 2-(2',2',2'-trifluoroethoxy)estra-3,17β-diol], the negative logarithm of the IC50 (pIC50) in series [1] was 5.77.
With `CCOc1cc2c(cc1O)C(=NN)C[C@@H]1[C@@H]2CC[C@]2(C)[C@@H](O)CC[C@@H]12` [Compound 13, 2-Ethoxy-6-Hydrazone-estra-1,3,5(10)-Triene-3,17β-Diol], the pIC50 in [1] is 4.82. The concentration for 50% growth inhibition (GI50) in [4] came out at 1.18 µM; in [5] it was 2.12 µM; in series [12], 2.76 µM; in [6], 0.88 µM; in [7], 5.43 µM; in series [8] it was 16.8 µM. Also, the GI50 in series [9] worked out at 17 µM; in series [10] it was 6.5 µM; in series [11] (setting [14]), 4.17 µM.
Regarding `CCOc1cc2c(cc1O)C(=O)C[C@@H]1[C@@H]2CC[C@]2(C)[C@@H](O)CC[C@@H]12` [Compound 10, 2-Ethoxy-6-Oxoestra-1,3,5(10)-Triene-3,17β-Diol], the pIC50 in series [1] was 5.32. Moreover, the GI50 worked out at 0.03 µM in series [4]; 0.02 µM in series [5]; 0.71 µM in series [12]; 0.01 µM in series [6]; 0.63 µM in [7]; 0.18 µM in series [8]. Further, the figures for the GI50 in series [9], in series [10] and in series [11] (setting [13]) were 0.17 µM, less than 0.01 µM and 0.13 µM, respectively.
For `CCOc1cc2c(cc1O)C(=NOC)C[C@@H]1[C@@H]2CC[C@]2(C)[C@@H](O)CC[C@@H]12` [Compound 16, 2-Ethoxy-6-(O-Methyl)hydroximino-Estra-1,3,5(10)-Triene-3,17β-Diol], in [1], the pIC50 was 6.12. In addition, the GI50 in series [4] was less than 0.01 µM; in series [5] it was less than 0.01 µM; in series [6] it was less than 0.01 µM; in [7], less than 0.01 µM; in [8], 0.26 µM; in series [9], 0.32 µM. For the same compound, the GI50 in series [10] was 0.02 µM; in series [11] (setting [13]) it was 0.24 µM. The “affinity for the estrogen receptor, in words” value in series [2] is reported as “no affinity for the estrogen receptor”. For the same compound, the “RBA (relative binding affinity)” value in [2] (20 hours) is recorded as less than 0.001.
